The values below come from patent US5527821A, “Pharmacologically active alpha-[tertiary-aminomethyl]-benzenemethanol derivatives” (Pharmacia AB, priority 1992, dated 1996).

SMILES strings stand for the structures. pEC50: −log10 of the molar value. Counter-ions that a name gives are not always drawn.

One data set has as its system isolated rabbit urethra. Nature of the data set: Effects on the isolated rabbit urethra (contraction, in vitro). The note with it: Oryctolagus cuniculus, Krebs solution, 37° C. The class given is cell-based. Here is the method: (§1) Female rabbits weighing 2.5-3.0 kg were sacrificed and exsanguinated. The urethra and portal vein were dissected out and suspended in organ baths containing oxygenated Krebs solution at 37° C. Two rings of urethra (4 mm broad) and two longitudinal strips of the portal vein were used. The basal tension was adjusted to about 10 mN after an equilibration time of 60 minutes. Isometric tension was recorded via a force transducer (Statham FT03) and registered on a Grass polygraph model 7.
(§2) Submaximum concentrations of noradrenaline (6×10^-5 M) were used to achieve reference contractions.
(§3) The test substances were added cumulatively (12 concentrations) until a maximum response was obtained.

For data set [1], the system named is isolated rabbit portal vein. Briefly: Effects on the isolated rabbit portal vein (contraction, in vitro). As to conditions: Oryctolagus cuniculus. The class given is cell-based. As to the method: as §1, §2, §3
Data set [2] concerns urethra (urethral pressure in anaesthetized rabbits). Nature of the data set: Effects on urethral pressure in anaesthetized rabbits. It counts as in vivo, rabbit. As to conditions: Oryctolagus cuniculus, iv, read-out: Max. urethral pressure in vivo, in % of NA-max, anaesthetized rabbits, i.v. injections of different doses; reference noradrenaline 0.025 μg/kg i.v. As to the method: (§4) Rabbits, weighing 2.5-3 kg, were anaesthetized by pentobarbitone (initially 40 mg/kg i.v. and for maintenance anaesthesia 10 mg/kg, h). For recording of urethral pressure a catheter (Dog cath nr 6.) was inserted into the urethra and placed at the point of highest pressure. The basal urethral pressure was approximately 10 cm H2 O. The blood pressure was recorded via a catheter (PP50) inserted into a femoral artery. Substances were injected intravenously into a catheter in a femoral vein. The continuous intravenous infusion of pentobarbitone kept the depth of anesthesia at a constant level through the experiment. Three consecutive noradrenaline injections (0.025 μg/kg i.v.) were given initially to constitute reference responses. Repeated intravenous injections of different doses of the same test compound were given in a randomized manner. […] In other pharmacological experiments (not described here) it was also shown that the described compounds had no or minimal effect on other organs, such as for example the urinary bladder, central nervous system, intestine, vas deferens etc.

Data set [3] concerns blood pressure in anaesthetized rabbits. Briefly: Effects on blood pressure in anaesthetized rabbits. The class given is in vivo, rabbit. The note with it: i.v. injections of different doses, femoral artery catheter. Here is the method:
as §4

For the compound `COc1cccc(C(O)CN(C)C)c1OC(C)C` (stereo not drawn) [Compound 4, α-[(Dimethylamino)methyl]-3-methoxy-2-(1-methylethoxy)-benzenemethanol, hydrogen oxalate], the pEC50 with isolated rabbit urethra (read-out: Urethra, in vitro: EC50-value (effective concentration inducing a half maximum contraction), female rabbit urethra rings, cumulative addition) was 5.24; in data set [1] (read-out: Portal vein, in vitro: EC50 value (effective concentration inducing a half maximum contraction)) it was 4.06. For the same compound, the Emax in the data set with isolated rabbit urethra (read-out: Urethra, in vitro: Max. contraction, female rabbit urethra rings, cumulative addition (12 concentrations), reference noradrenaline 6×10^-5 M) was determined as 95%; in data set [1] (read-out: Portal vein, in vitro: Max. contraction, female rabbit portal vein longitudinal strips, cumulative addition (12 concentrations), reference noradrenaline 6×10^-5 M, Krebs solution, 37° C.), 35%; in data set [2], 211%. Besides, the “Blood pressure; max change, in %” value in data set [3] worked out at 10%.
